Measured values: patent US20260315431A1, “NANOMATERIAL ENCAPSULATED BIOFILM INHIBITORS FOR DENTAL CARIES TREATMENT” (THE UAB RESEARCH FOUNDATION, priority 2023, published 2026)
“Also recorded” adds a separate entry of the source.

Assays:
S. sanguinis SK36 [1] = experiment: Commensal biofilm inhibition, S. sanguinis SK36 (crystal violet, OD562); type: cell-based, Streptococcus sanguinis; details: 25 μM
Procedure: (§1) The bacterial strains, S. mutans UA159, S. gordonii DL1, and S. sanguinis SK36 were inoculated statically at 37° C. under 5% CO2 in Todd Hewitt Broth (THB) for 24 h. The cultures were then diluted with fresh THB (1:5) and reinoculated until optical density at 470 nm (OD470) reached 1. The optical density was read using BioTek 800TS microplate reader at 470 nm for bacterial growth and 562 nm for biofilm stained with crystal violet. Data was plotted in Graphpad Prism9.
Biofilm inhibition assays. Biofilm inhibition assays were performed in polystyrene microtiter 96 well plates. […] After reading optical density for bacterial growth, the plate was gently washed with water, dried, and stained with crystal violet, and then gently rinsed again with deionized water leaving the stained biofilm at the bottoms of the wells. Biofilms was dissolved in 200 μL of 30% acetic acid and absorbance at 562 nm was used read to determine biofilm biomass. […] Biofilm inhibitory concentration (IC50) of the compounds was determined by serial dilutions.
All bacterial strains (S. mutans UA159, S. gordonii DL1, and S. sanguinis SK36) were inoculated statically at 37° C. under 5% CO2 environment in Todd Hewitt Broth (THB) for 24 h^[61]. […] The optical density was read using BioTek 800 TS absorbance reader at 470 nm for bacterial growth and 562 nm for biofilm stained with crystal violet. […]

S. sanguinis SK36 [2] = experiment: Planktonic growth, S. sanguinis SK36 (OD470); type: cell-based, Streptococcus sanguinis
Procedure: as §1
(§2) S. mutans, S. gordonii, and S. sanguinis growth assays. Effects of compounds on S. mutans and commensal bacterial growth were evaluated using the growth assay as described^69. S. mutans UA159, S. gordonii DL1, S. sanguinis SK36, cultures were grown for 24 h under 5% CO2 at 37° C. These cultures were then reinoculated with fresh THB (1:5) until OD470=1 when the bacteria were ready to be used. Different concentrations of the inhibitor were assayed in chemically defined media (CDM) with 1% of the bacteria, 1% sucrose and 1% DMSO in 96 well plates. The 96 well plates were incubated under 5% CO2 at 37° C. for 16 h. Growth of the bacteria was read after 16 h at OD470. Each assay was carried out at least in triplicate.
All bacterial strains (S. mutans UA159, S. gordonii DL1, and S. sanguinis SK36) were inoculated statically at 37° C. under 5% CO2 environment in Todd Hewitt Broth (THB) for 24 h^[61]. The cultures were then diluted with fresh THB (1:5) and reinoculated until the optical density at 470 nm reaches 1. The optical density was read using BioTek 800 TS absorbance reader at 470 nm for bacterial growth and 562 nm for biofilm stained with crystal violet. Data was plotted in Prism 10.0.2.
as §2, with “Effects” for “S. mutans, S. gordonii, and S. sanguinis growth assays. Effects”, “PEHA5, PEHA6, HA5 or HA6” for “compounds”, “described^[62].” for “described^69.”, “PEHA5, PEHA6, HA5 or HA6” for “inhibitor”, “CDM” for “chemically defined media (CDM)”

Structure (SMILES) | S. sanguinis biofilm (S. sanguinis SK36 [1]) | planktonic growth of S. sanguinis (S. sanguinis SK36 [2]; 25 μM) | growth of S. sanguinis (S. sanguinis SK36 [2]; 50 μM and 100 μM (100 μM)) | growth of S. sanguinis (S. sanguinis SK36 [2]; at biofilm inhibiting doses) | growth of S. sanguinis (S. sanguinis SK36 [2]; 25 μM and 50 μM)
O=C1/C(=C/c2cc(O)c(O)cc2O)Oc2ccccc21 [HA5, 2-[(2′,4′,5′-Trihydroxyphenyl)methylidene]-2,3-dihydro-1-benzofuran-3-one] | did not significantly reduce; also recorded: minimal | did not affect the planktonic growth | did not inhibit the growth; also recorded: does not inhibit the growth | without affecting the growth | –
O=C1/C(=C/c2cc(O)c(O)c(O)c2)Oc2ccccc21 [HA6, 2-[(3′,4′,5′-Trihydroxyphenyl)methylidene]-2,3-dihydro-1-benzofuran-3-one] | did not significantly reduce the biofilms | – | – | without affecting the growth | did not inhibit the growth
